Assay results as given in patent US12637471B2, “Heterocyclic compounds, compositions, methods of preparation and uses thereof” (Organon R&D Finland Ltd, priority 2021, dated 2026).

Legend:
Format in all cases: biochemical
[1] = molecular target: T1, 17β-Hydroxysteroid Dehydrogenase Type 2 Enzyme (17β-HSD2) (Homo sapiens, UniProt P37059); assay: Inhibition of the 17β-hydroxysteroid dehydrogenase type 2 enzyme, 3H-testosterone conversion; conditions: inhibitor at 10 μM
T1 construct: made in house; host or cells: Sf-9 insect cells (baculovirus)
T1 sequence (P37059 1-387): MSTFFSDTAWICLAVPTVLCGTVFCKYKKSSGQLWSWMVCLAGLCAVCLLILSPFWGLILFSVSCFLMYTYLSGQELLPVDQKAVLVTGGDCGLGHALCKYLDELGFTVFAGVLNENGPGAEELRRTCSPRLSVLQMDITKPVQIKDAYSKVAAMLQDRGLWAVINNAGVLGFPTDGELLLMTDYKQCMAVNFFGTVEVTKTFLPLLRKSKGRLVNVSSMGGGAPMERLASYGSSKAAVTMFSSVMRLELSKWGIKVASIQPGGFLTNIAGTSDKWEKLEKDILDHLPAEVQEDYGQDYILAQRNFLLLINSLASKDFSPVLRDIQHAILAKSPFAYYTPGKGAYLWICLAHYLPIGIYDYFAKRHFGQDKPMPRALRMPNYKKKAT
Protocol: Inhibition of the 17β-Hydroxysteroid Dehydrogenase Type 2 Enzyme
Recombinant human 173-HSD2 protein (GenBank Accession No. NM_002153.3) produced in Sf-9 insect cells with baculovirus was used for screening.
Recombinant protein (105 nM/4.5 μg/ml) was incubated in 20 mM KH2PO4 pH 8.5, 1 mM EDTA, complete protease inhibitor cocktail, 1 mM NAD with 56.25 nM testosterone (including ^3H-labelled testosterone) for 30 min at RT, in the presence of the potential inhibitor at 10 μM concentration. Inhibitor stock solutions were prepared in DMSO. Final concentration of DMSO was adjusted to 1% in all samples. The enzyme reaction was stopped by addition of 10% trichloroacetic acid (final concentration 1%). Samples were filtrated through […] filtration plate. Analyses of samples was done with Waters Acquity UPLC H-class equipped with XBridge C18 column and XBridge VanGuard C18 guard column. Acetonitrile: 0.1% formic acid in water (42/58 v/v) with flow of 1.2 ml/min was used for mobile phase. The eluent was mixed with scintillant and the radioactivity was monitored in the eluate by a Scintillation Analyser. The conversion percentage of tritiated substrate (testosterone) to product tritiated (androstenedione) for each sample was determined by the relative percentages of substrate and product in the chromatogram. The inhibition percentages of samples were calculated using following formula: […]

[2] = molecular target: T2, Recombinant human aldo-keto reductase family 1 member C2 (AKR1C2) protein (Homo sapiens, UniProt P52895); assay: Inhibition of the aldo-keto reductase family 1 member C2, 3H-dihydrotestosterone conversion; conditions: inhibitor at 10 μM
T2 construct: made in house; host or cells: Sf-9 insect cells (baculovirus)
T2 sequence (P52895 1-323): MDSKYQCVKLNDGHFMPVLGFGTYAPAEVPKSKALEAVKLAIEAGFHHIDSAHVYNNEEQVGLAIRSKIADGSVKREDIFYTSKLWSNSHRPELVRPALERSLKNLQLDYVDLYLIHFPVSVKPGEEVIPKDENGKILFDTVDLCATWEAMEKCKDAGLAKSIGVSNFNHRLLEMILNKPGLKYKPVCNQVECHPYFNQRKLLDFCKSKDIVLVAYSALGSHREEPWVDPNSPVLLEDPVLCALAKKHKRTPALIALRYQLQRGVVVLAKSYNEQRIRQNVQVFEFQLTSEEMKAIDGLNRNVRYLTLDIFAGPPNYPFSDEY
Protocol: Inhibition of the Aldo-Keto Reductase Family 1 Member C2
Recombinant human aldo-keto reductase family 1 member C2 (AKR1C2) protein (GenBank Accession No. NM_001354.6) produced in Sf-9 insect cells with baculovirus was used for screening. Recombinant protein (13.6 nM/0.5 μg/ml) was incubated in 20 mM KH2PO4 pH 7.4, 1 mM EDTA, complete protease inhibitor tablet, 1 mM NADPH with 6.25 nM ^3H-labelled dihydrotestosterone for 45 min at +37° C., in the presence of the potential inhibitor at 10 μM concentration. Inhibitor stock solutions were prepared in DMSO. Final concentration of DMSO was adjusted to 1% in all samples. The enzyme reaction was stopped by addition of 10% trichloroacetic acid (final concentration 1%). Samples were filtrated through […] filtration plate (Merck). Analyses of samples was done with Waters Acquity UPLC H-class equipped with XBridge C18 column and XBridge VanGuard C18 guard column. Acetonitrile: 0.1% formic acid in water (42/58 v/v) with flow of 1.2 ml/min was used for mobile phase. The eluent was mixed with scintillant and the radioactivity was monitored in the eluate by a Scintillation Analyser. The conversion percentage of triated substrate (dihydrotestosterone) to tritiated product (5α-androstane-3α,17β-diol) for each sample was determined by the relative percentages of substrate and product in the chromatogram. The inhibition percentages of samples were calculated using following formula: […]

[3] = molecular target: T3, Recombinant human AKR1C3 (17β-HSD5) protein (Homo sapiens, UniProt P42330); assay: Inhibition of AKR1C3 (17β-hydroxysteroid dehydrogenase type 5) enzyme, fluorescence assay; conditions: inhibitor at 500 nM
T3 construct: made in house; host or cells: E. coli
T3 sequence (P42330 1-323): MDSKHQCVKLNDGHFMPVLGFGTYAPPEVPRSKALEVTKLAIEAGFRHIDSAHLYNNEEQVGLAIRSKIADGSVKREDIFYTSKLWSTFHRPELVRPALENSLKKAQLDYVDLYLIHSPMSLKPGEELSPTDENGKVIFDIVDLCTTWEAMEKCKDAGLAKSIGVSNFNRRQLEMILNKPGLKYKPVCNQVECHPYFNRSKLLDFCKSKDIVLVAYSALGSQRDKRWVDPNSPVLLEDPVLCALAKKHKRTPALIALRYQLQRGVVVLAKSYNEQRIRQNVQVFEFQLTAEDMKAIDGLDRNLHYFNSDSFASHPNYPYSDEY
Protocol: Inhibition of AKR1C3 (17β-Hydroxysteroid Dehydrogenase Type 5) Enzyme
Recombinant human AKR1C3 (17β-HSD5) protein (GenBank Accession No. NM_003739.6) produced in E. coli was used for screening. Recombinant protein (27 nM/1 μg/ml) was incubated in 20 mM KH2PO4, 1 mM EDTA, complete protease inhibitor cocktail, pH 7.4 with 1 μM 9-acetyl-2,3,6,7-tetrahydro-1H,5H,11H-pyrano[2,3-f]pyrido[3,2,1-ij]quinolin-11-one and 1 mM NADPH for 60 to 120 min at RT, in the presence of the potential inhibitor at 500 nM concentration. Inhibitor stock solutions were prepared in DMSO. Final concentration of DMSO was adjusted to 1% in all samples. The samples were analysed by fluorescent measurement with Tecan Spark microplate reader at wavelengths 420 nm for excitation and 510 nm for emission. Samples were evaluated against standards of 9-(1-hydroxyethyl)-2,3,6,7-tetrahydro-1H,5H,11H-pyrano[2,3-f]pyrido[3,2,1-ij]quinolin-11-one at concentrations 1 μM-10 nM. Background fluorescence was reduced from all the samples and standards. The concentrations of formed product were calculated from the standard curve with Tecan Spark Magellan software. The formed product concentrations were used to calculate conversion percentages. The inhibition percentages for the samples were calculated from the conversion percentages.
Inhibition percentages of samples were calculated using following formula: […]

For N#CC(=C1CCN(C(=O)N2CCOCC2)CC1)c1ccc(F)cc1 [Compound 1, 2-(4-fluorophenyl)-2-(1-(morpholine-4-carbonyl)piperidin-4-ylidene)acetonitrile], the inhibition at 10 µM [1] was 2%, the inhibition at 10 µM [2] was 5% and the inhibition at 0.5 µM [3] was 99%.

N#CC(=C1CCN(C(=O)N2CCOCC2)CC1)c1ccc(Cl)cc1 [Compound 2, 2-(4-chlorophenyl)-2-(1-(morpholine-4-carbonyl)piperidin-4-ylidene)acetonitrile] was tested, and the inhibition at 10 µM [1] was 3%, the inhibition at 10 µM [2] was 4% and the inhibition at 0.5 µM [3] was 99%.

For N#CC(=C1CCN(C(=O)N2CCCCC2)CC1)c1ccc(F)cc1 [Compound 3, 2-(4-fluorophenyl)-2-(1-(piperidine-1-carbonyl)piperidin-4-ylidene)acetonitrile], the inhibition at 10 µM [1] was 28%, the inhibition at 10 µM [2] was 18% and the inhibition at 0.5 µM [3] was 95%.

Work on N#CC(=C1CCN(C(=O)N2CCC(O)CC2)CC1)c1ccc(F)cc1 [Compound 4, 2-(4-fluorophenyl)-2-(1-(4-hydroxypiperidine-1-carbonyl)piperidin-4-ylidene)acetonitrile] yielded an inhibition at 10 µM [1] of 8%, an inhibition at 10 µM [2] of 0% and an inhibition at 0.5 µM [3] of 99%.

For CCN(CC)C(=O)N1CCC(=C(C#N)c2ccc(F)cc2)CC1 [Compound 5, 4-(cyano(4-fluorophenyl)methylene)-N,N-diethylpiperidine-1-carboxamide], the inhibition at 10 µM [1] was 15%, the inhibition at 10 µM [2] was 15% and the inhibition at 0.5 µM [3] was 99%.

With N#CC(=C1CCN(C(=O)N2CCCC2)CC1)c1ccc(F)cc1 [Compound 6, 2-(4-fluorophenyl)-2-(1-(pyrrolidine-1-carbonyl)piperidin-4-ylidene)acetonitrile] the inhibition at 10 µM [1] was 10%, the inhibition at 10 µM [2] was 8% and the inhibition at 0.5 µM [3] was 95%.

Molecule CO[C@@H]1CCN(C(=O)N2CCC(=C(C#N)c3ccc(F)cc3)CC2)C1 [Compound 7, (R)-2-(4-fluorophenyl)-2-(1-(3-methoxypyrrolidine-1-carbonyl)piperidin-4-ylidene)acetonitrile] has an inhibition at 10 µM [1] of 1%, an inhibition at 10 µM [2] of 9% and an inhibition at 0.5 µM [3] of 95%.

Molecule COC[C@@H]1CCCN1C(=O)N1CCC(=C(C#N)c2ccc(F)cc2)CC1 [Compound 8, (S)-2-(4-fluorophenyl)-2-(1-(2-(methoxymethyl)pyrrolidine-1-carbonyl)piperidin-4-ylidene)acetonitrile] has an inhibition at 10 µM [1] of 8%, an inhibition at 10 µM [2] of 7% and an inhibition at 0.5 µM [3] of 98%.

Work on N#CC(=C1CCN(C(=O)N2CC[C@H](O)C2)CC1)c1ccc(F)cc1 [Compound 9, (S)-2-(4-fluorophenyl)-2-(1-(3-hydroxypyrrolidine-1-carbonyl)piperidin-4-ylidene)acetonitrile] yielded an inhibition at 10 µM [1] of 13%, an inhibition at 10 µM [2] of 4% and an inhibition at 0.5 µM [3] of 89%.

N#CC(=C1CCN(C(=O)N2CCCCC2)CC1)c1cc(F)cc(F)c1 [Compound 10, 2-(3,5-difluorophenyl)-2-(1-(piperidine-1-carbonyl)piperidin-4-ylidene)acetonitrile] gave an inhibition at 10 µM [1] of 4%, an inhibition at 10 µM [2] of 10% and an inhibition at 0.5 µM [3] of 89%.

N#CC(=C1CCN(C(=O)N2Cc3ccccc3C2)CC1)c1ccc(F)cc1 [Compound 11, 2-(4-fluorophenyl)-2-(1-(isoindoline-2-carbonyl)piperidin-4-ylidene)acetonitrile] was tested, and the inhibition at 10 µM [1] was 24%, the inhibition at 10 µM [2] was 17% and the inhibition at 0.5 µM [3] was 96%.

In the case of N#CC(=C1CCN(C(=O)N2CCc3nocc3C2)CC1)c1ccc(F)cc1 [Compound 12, 2-(4-fluorophenyl)-2-(1-(4,5,6,7-tetrahydroisoxazolo[4,3-c]pyridine-5-carbonyl)piperidin-4-ylidene)acetonitrile], the inhibition at 10 µM [1] is reported as 8%, the inhibition at 10 µM [2] is reported as 19% and the inhibition at 0.5 µM [3] is reported as 99%.

N#CC(=C1CCN(C(=O)N2CCn3nncc3C2)CC1)c1ccc(F)cc1 [Compound 13, 2-(4-fluorophenyl)-2-(1-(4,5,6,7-tetrahydro-[1,2,3]triazolo[1,5-a]pyrazine-5-carbonyl)piperidin-4-ylidene)acetonitrile] was tested, and the inhibition at 10 µM [1] was 7%, the inhibition at 10 µM [2] was 19% and the inhibition at 0.5 µM [3] was 99%.

CN(C(=O)N1CCC(=C(C#N)c2ccc(F)cc2)CC1)C1CCOCC1 [Compound 14, 4-(cyano(4-fluorophenyl)methylene)-N-methyl-N-(tetrahydro-2H-pyran-4-yl)piperidine-1-carboxamide] was tested, and the inhibition at 10 µM [1] was 3%, the inhibition at 10 µM [2] was 11% and the inhibition at 0.5 µM [3] was 94%.

N#CC(=C1CCN(C(=O)N2C3CCC2COC3)CC1)c1ccc(F)cc1 [Compound 15, 2-(1-(3-oxa-8-azabicyclo[3.2.1]octane-8-carbonyl)piperidin-4-ylidene)-2-(4-fluorophenyl)acetonitrile] gave an inhibition at 10 µM [1] of 11%, an inhibition at 10 µM [2] of 6% and an inhibition at 0.5 µM [3] of 97%.

With CN(C)C(=O)N1CCC(=C(C#N)c2ccc(F)cc2)CC1 [Compound 16, 4-(cyano(4-fluorophenyl)methylene)-N,N-dimethylpiperidine-1-carboxamide] the inhibition at 10 µM [1] was 14%, the inhibition at 10 µM [2] was 8% and the inhibition at 0.5 µM [3] was 97%.

COC1CCN(C(=O)N2CCC(=C(C#N)c3cccc(Cl)c3)CC2)CC1 [Compound 17, 2-(3-chlorophenyl)-2-(1-(4-methoxypiperidine-1-carbonyl)piperidin-4-ylidene)acetonitrile] was tested, and the inhibition at 10 µM [1] was 31%, the inhibition at 10 µM [2] was 8% and the inhibition at 0.5 µM [3] was 98%.
